From ChEMBL document CHEMBL1201862, “PubChem BioAssay data set” (2004)
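Tested at 5 concentrations; 48 h exposure; 96-well plates; endpoints linearly interpolated, else capped at highest concentration. GI50: concentration for 50% inhibition of growth.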 Active and inactive are the calls of the source. No stated cut-off is given here; in the data, active = GI50 up to about 1.1 µM and inactive = higher.

Columns and labels:
Experiment in all cases: growth of human tumour cells (NCI), 48 h
A498 = system: A498
ACHN = system: ACHN
CCRF-CEM = system: CCRF-CEM
HOP-92 = system: HOP-92
HT-29 = system: HT-29
Hs-578T = system: Hs-578T
LXFL 529 = system: LXFL 529
M14 = system: M14
MCF7 = system: MCF7
MDA-MB-231 = system: MDA-MB-231
NCI-H23 = system: NCI-H23
OVCAR-3 = system: OVCAR-3
OVCAR-4 = system: OVCAR-4
OVCAR-5 = system: OVCAR-5
OVCAR-8 = system: OVCAR-8
SF-295 = system: SF-295
SK-MEL-2 = system: SK-MEL-2
SK-MEL-5 = system: SK-MEL-5
T47D = system: T47D
TK-10 = system: TK-10

Measured: GI50

O=c1cc(-c2cccnc2)[nH]c2cc3c(cc12)OCO3
inactive: A498 10.7 µM | ACHN 13.6 µM | CCRF-CEM 6.65 µM | HOP-92 13.5 µM | HT-29 6.59 µM | Hs-578T 11.3 µM | LXFL 529 2.3 µM | M14 4.59 µM | MCF7 5.92 µM | MDA-MB-231 29.6 µM | NCI-H23 10.3 µM | OVCAR-3 2.81 µM | OVCAR-4 > 73.3 µM | OVCAR-5 > 100 µM | OVCAR-8 12.9 µM | SF-295 11.1 µM | SK-MEL-2 8.04 µM | SK-MEL-5 2.73 µM | T47D > 100 µM | TK-10 41.6 µM

COC(=O)C(CBr)CBr
active: CCRF-CEM 0.762 µM
inactive: A498 16.8 µM | ACHN 3.7 µM | HOP-92 1.79 µM | HT-29 4.1 µM | Hs-578T 4.65 µM | LXFL 529 1.79 µM | M14 2.15 µM | MCF7 4.46 µM | MDA-MB-231 2.12 µM | NCI-H23 6.78 µM | OVCAR-3 2.65 µM | OVCAR-4 4.03 µM | OVCAR-5 16.8 µM | OVCAR-8 3.41 µM | SF-295 16.2 µM | SK-MEL-2 10.8 µM | SK-MEL-5 8.75 µM | T47D 2.5 µM | TK-10 4.79 µM

CCCCCCC(O)C/C=C/CCCCCC/C(C(=O)OC)=C(/O)C(=O)OCC (stereo not given)
inactive: A498 > 100 µM | ACHN > 100 µM | CCRF-CEM > 100 µM | HOP-92 > 100 µM | HT-29 > 100 µM | LXFL 529 > 100 µM | M14 > 100 µM | NCI-H23 > 100 µM | OVCAR-3 > 100 µM | OVCAR-4 > 100 µM | OVCAR-5 > 100 µM | OVCAR-8 > 100 µM | SF-295 > 100 µM | SK-MEL-2 > 100 µM | SK-MEL-5 > 100 µM | TK-10 > 100 µM

C=C1C(=O)OC2/C=C(/C)C3CC(O)C(C)(CC(OC(=O)/C(C)=C/C)C12)O3 (stereo not given)
inactive: A498 10.4 µM | ACHN 2.49 µM | HOP-92 2.98 µM | HT-29 3.76 µM | LXFL 529 2.08 µM | M14 2.91 µM | NCI-H23 4.49 µM | OVCAR-3 3.78 µM | OVCAR-4 7.55 µM | OVCAR-5 8.61 µM | OVCAR-8 1.83 µM | SF-295 > 39.4 µM | SK-MEL-2 2.49 µM | SK-MEL-5 4.68 µM | TK-10 8.24 µM
active: CCRF-CEM 0.508 µM

Nc1ncnc2c1ncn2C1OC(CSCc2ccc(Cl)cc2)C(O)C1O (stereo not given)
inactive: A498 23.8 µM | ACHN 34.9 µM | CCRF-CEM 31.3 µM | HOP-92 4.18 µM | HT-29 22.1 µM | LXFL 529 17.2 µM | M14 17.1 µM | NCI-H23 24.2 µM | OVCAR-3 32.1 µM | OVCAR-4 35.6 µM | OVCAR-5 > 100 µM | OVCAR-8 42.7 µM | SF-295 50.9 µM | SK-MEL-2 25.5 µM | SK-MEL-5 33.8 µM | TK-10 55 µM

CC(=O)CC(=O)CCC(=O)Nc1cccc(C(F)(F)F)c1
inactive: A498 > 100 µM | ACHN > 100 µM | CCRF-CEM > 100 µM | HOP-92 > 100 µM | HT-29 > 100 µM | LXFL 529 > 100 µM | M14 > 100 µM | NCI-H23 > 100 µM | OVCAR-3 > 100 µM | OVCAR-4 > 100 µM | OVCAR-5 > 100 µM | OVCAR-8 > 100 µM | SF-295 > 100 µM | SK-MEL-2 > 100 µM | SK-MEL-5 > 100 µM | TK-10 > 100 µM

CN(C=O)/C=C/c1cc(O)ccc1O
inactive: A498 > 68.2 µM | ACHN 16.1 µM | CCRF-CEM 18.7 µM | HOP-92 19.9 µM | HT-29 32.6 µM | LXFL 529 18.8 µM | M14 41.3 µM | NCI-H23 36.8 µM | OVCAR-3 18.2 µM | OVCAR-4 17.6 µM | OVCAR-5 40.6 µM | OVCAR-8 30.3 µM | SF-295 32.5 µM | SK-MEL-2 35.6 µM | SK-MEL-5 42 µM | TK-10 26.8 µM

N#CC(C#N)=C(N)/C(C#N)=C/c1cc(O)c(O)c(Br)c1
inactive: A498 > 100 µM | ACHN 77.1 µM | CCRF-CEM 28.2 µM | HOP-92 46 µM | HT-29 37.4 µM | Hs-578T 38.9 µM | LXFL 529 44.9 µM | M14 > 75.9 µM | MCF7 49.4 µM | MDA-MB-231 88.5 µM | NCI-H23 > 100 µM | OVCAR-3 27.5 µM | OVCAR-4 38.6 µM | OVCAR-5 > 43.6 µM | OVCAR-8 48.1 µM | SF-295 > 82 µM | SK-MEL-2 90.6 µM | SK-MEL-5 60.3 µM | T47D 32.7 µM | TK-10 > 100 µM
